The nature of assay [1]: GUV image analysis, shape descriptors (light sheet fluorescence microscopy). Particulars: [(treated GUVs − control GUVs)/control GUVs]*100. From the text:
GUVs appear dark against the background as a consequence of the difference in refractive index of GUVs contents (sucrose solution) and the surrounding medium (glucose solution). A white halo appears around the vesicle. Formation of pores and of protuberances may be thus evidenced. GUVs appear under differential interference contrast (DIC) round shaped with an average smaller area compared to GUVs treated with gH625 (Table 5, Figure 8). […] The addition of gH625-H7 to GUVs produced a similar effect of gH625 with the only difference that it induces an enhancement of the GUVs fusion tendency (Figure 8). gH625 and gH625-H7 enhance the mean area and perimeter of GUVs (Figure 9A,C). […] Main shape descriptor analysis confirms that the addition of gH625 or gH625-H7 induces an increase in area and perimeter also indicating a decrease in circularity and roundness parameters (Table 5).
LUVs and SUVs for fluorescence,circular dichroism and surface plasmon resonance, consisting of DOPG, DOPG/Chol (60/40 mol/mol), DOPC/Chol (60/40 mol/mol), and when necessary containing Rho-PE and NBD-PE, or ANTS and DPX, were prepared in 5 mM HEPES, 100 mM NaCl, pH 7.4[66]. Aliquots containing the necessary amount of lipids were dried from a chloroform solution with a nitrogen gas stream and lyophilized overnight to produce dry lipid films which were then resuspended in buffer and vortexed for 1 h; the lipid suspension was freeze-thawed 6 times to obtain multilamellar vesicles (MLV). […] Lipid concentrations of liposome suspensions were determined by phosphate analysis. […]
GUVs were used upon one day from preparation. Ten microliters of fluorescent GUVs were analyzed (before and after the addition of gH625 or gH625-H7) under a custom made light sheet fluorescent microscope equipped with five laser lines (λ = 375 nm Coherent Cube, λ = 405 nm Coherent Cube, λ = 473 nm Laserworld Blue-200, λ = 532 nm Coherent Compass 215 M-10 DPSS laser and λ = 632.8 nm Thorlabs HRR005S Helium-Neon laser), a motorized microscope MS-2000 XY stage with LX-4000 controller (Applied Scientific Instrumentation), a Focus Drive motorized Z stage (Tofra Inc.) and Nano-F200S nanopositioner controlled by Nanodrive® controller (Mad City Labs); all devices were managed by MicroManager software. […] The emerging fluorescence was detected by the Orca flash 2.8 sCMOS camera (Hamamatsu) driven by Dalsa Xcelera (Teledyne DALSA) PCIe card mounted on AMD FX-8 core 3.5 GHz, 32 Gb RAM pc running Windows 8.1 (Microsoft). […] GUV parameters were calculated by the Analyze particles ImageJ plugin; a minimum size of 5 μm^2 and circularity of at least […] Circularity=4π×[Area]/[Perimeter]^2 with a value of 1.0 indicating a perfect circle) was considered. […]

The nature of assay [2]: Acceptor photobleaching FRET, GUV fusion. Particulars: NBD/Rhodamine GUVs mixed 1:4 with unlabelled GUVs, peptide:GUVs ratio 0.5. The text has this: Figure 10 Mean fluorescence of GUVs suspension resulting after gH625 or gH625-H7 administration, calculated by the AccPbFRET plug in of ImageJ. The FRET efficiency E is 0.729, calculated as follows: E = 1 − (F Donor quenched by acceptor/F Donor de quenched) (A). Time course of FRET effect due to gH625 or gH625-H7 administration to GUVs. Values are expressed as integrated density, defined as the mean gray value per the mean area. Each time point represents the same field acquired in both channels. Each data set represents the mean of at least 10 GUVs for each field (B,C).
To evaluate the fusion of GUVs due to the addition of gH625 and gH625-H7, a slightly modified protocol for acceptor photobleaching FRET was performed. […] An aliquot of the mix was charged in the Burker’s chamber under Axioskop (Zeiss) fluorescence microscope; images were acquired using Axiocam Mrc5 CCD camera (Zeiss) in both at 525 nm and 615 nm and analysed with the Physiology module of Axiovision software 4.8 (Zeiss) to calculate the basic fluorescence of the donor. Samples were then treated with gH625 and gH625-H7 to a peptide:GUVs ratio of 0.5 and images were immediately acquired to calculate the fluorescence of the donor and the photobleaching of the acceptor (only used as a control for the amount of bleaching) after the exposure to peptides. […]

Positions of bridges follow the written chain, without caps; N, C: chain ends. Residues, ends and D or L forms follow the SMILES beside them. Chains are numbered I, II in the order given. No end group written: not given here.

As to `CC[C@H](C)[C@H](NC(=O)[C@H](CC(C)C)NC(=O)[C@H](C)NC(=O)[C@H](CC(N)=O)NC(=O)[C@H](Cc1ccc(O)cc1)NC(=O)[C@H](Cc1c[nH]cn1)NC(=O)[C@H](C)NC(=O)[C@H](Cc1c[nH]c2ccccc12)NC(=O)[C@H](CCCNC(=N)N)NC(=O)[C@@H](NC(=O)[C@H](CC(C)C)NC(=O)[C@@H](NC(=O)[C@H](CO)NC(=O)[C@H](C)NC(=O)[C@H](CC(C)C)NC(=O)CNC(=O)[C@@H](N)Cc1c[nH]cn1)[C@@H](C)O)[C@@H](C)O)C(=O)N[C@@H](CCCNC(=N)N)C(=O)N[C@@H](C)C(=O)N[C@@H](Cc1ccccc1)C(N)=O` [gH625] (H-HGLASTLTRWAHYNALIRAF-NH2), in assay [1], the “Var % circularity versus GUVs alone” value was −8.33% and the “Var % roundness versus GUVs alone” value is −10.60%. In addition, the “increase of donor (NBD) fluorescence compared to GUVs alone” value in assay [2] is recorded as 3.71 fold.
For “I: HGLASTLTRWAHYNALIRAFGCGKKKK-NH2 / II: HGLASTLTRWAHYNALIRAFGCGKKKK-NH2 (disulfide I:22-II:22) [gH625-H7]”, in that order: −33.33%, −18.18% and 3.92 fold.

The values above are taken from publication PMC5572722, “Dimerization in tailoring uptake efficacy of the HSV-1 derived membranotropic peptide gH625” (Scientific Reports, 2017).
